Test results: US12139443B2, “Concentrated liquid compositions of urease inhibitors for nitrogen sources” (priority 2017, dated 2024)
“And” between values parts separate entries of the source, which are not always exact repeats. Equal entries are not always repeated. Where two headings read alike, the source gives them in different places.

Tests used:
[1] = Time to dissolution of nitrification inhibitor coated with urease formulation; type: physicochemical; settings: UAN 30
Excerpt: • 1. In a 4 oz. glass jar add 97 grams of either Deionized (DI) Water or UAN 30. • 2. Add a ¾ inch magnetic stir bar and place on a Corning/Model PC-420 Heater/Stirrer and set stirring speed at #7. • 3. Charge 3 grams of a nitrification inhibitor coated or uncoated and start stop watch. • 4. Visually determine the point at which all particles of the nitrification inhibitor have dissolved and record this time as time to dissolution.

[2] = Thermal Stability of NBPT (oven exposure, weight loss and HPLC); type: physicochemical; settings: for % NBPT present by LC/UV % w/w: single determination
Protocol: One of the advantages of this invention is the application, at moderate temperatures, of thermally sensitive urease inhibitor onto the surfaces of urea. Moderate temperatures are defined as a range of about 20-70° C. Testing procedures were established to exactly weigh samples of approximately 1 gram of NBPT in an aluminum pan and expose them to different temperatures in an oven over varying amounts of time. The initial weight of NBPT in the pan was compared to the final weight of sample in the pan. The % NBPT was then determined by HPLC of the residual from the final weight pan by the following procedure:
1. Crush a portion of sample (˜5 g) using mortar and pestle.
2. Weigh about a 100 mg sample, in duplicate, and add to separate 10 mL volumetric flasks.
3. Bring to volume of 10 ml volumetric flask with 50:50 ACN(Acetonitrile):H2O.
5. Transfer a portion through a Nylon 0.45 μm syringe filter into an HPLC vial.
6. Inject on LC/UV (15-μg/mL calibration standard).

[3] = system: nitrification of urea fertilizer; experiment: University of Arkansas soil incubation trial, urea coated with N Bound; settings: Urea without inhibitor
Protocol: To determine what minimum effective levels of DCD are required to meet acceptable levels of nitrification inhibition and to maximize performance versus inhibitor level, studies were performed at Auburn University, South Dakota State University and University of Arkansas. These studies were performed by coating urea with a liquid nitrification inhibitor product, trade name N Bound, which contained approximately 28% DCD. The application rates of N Bound on urea (Units are in quarts of N Bound/ton of urea) was varied to measure application level versus the conversion of urea to nitrate measured as mg NO3 extracted from the applied soil.
A trial conducted at University of Arkansas was designed to measure and compare the nitrate concentrations from the microbial activity on untreated urea and ureas coated with N Bound that had been applied to classified as a Calhoun silt loam (pH=7.4) at varying rates. The objective was to determine the minimum inhibitor application rate to achieve optimize nitrification inhibition.

[4] = Crush strength of coated urea granules; type: physicochemical; settings: New Leader tester scale 1-10 (1 very poor), average of 10 runs
Excerpt: Crush strength is the minimum pressure required to crush a granule of urea. Crush strength is of concern during the application of urea and is a measure of the urea's expected broadcast distance. Crush strength is related to the maximum rotations per minute (rpm) for the spinner portion of the urea spreader. The higher the rpms of the spinner, the more distance the urea can be broadcasted. High rpms require high crush strength urea granules in order for the granules not to be pulverized to dust by the broadcast process.
In order for the coated granules of urea to be tested, they were first sifted through a series of screens to ensure that the urea granules to be tested were of similar particle size as the urea particle size has an impact on crush resistance. A mesh size of 320-400 was chosen as the urea particle size. A New Leader crushing strength tester was used utilizing a scale from 1-10 wherein a reading of 1 is rated very poor crush strength. The results in Table 14 are for coated urea stored at 25° C. and at 50° C. Also included in Table 14 is the weight percentage of DMSO of the composition of the coated urea.
However, it should be understood that a different method of applying example 86 to the surfaces of the urea granules might result in better coverage (e.g., atomization onto the granules). […]

Protocol for urease enzyme: The treated urea was prepared as follows:
• 1. Charging weight of urea as directed by Table 8 to a container. • 2. The urea was slowly agitated with overhead stirrer with U shaped agitator blade. • 3. The example was slowly dripped on the urea while mixing in the amount as directed by Table 8 (rate=3 quarts/ton of urea). • 4. […] The coated urea was placed in a jar and sealed.
• 1. In a 6″×9″ rectangular Tupperware sealable container with holes drilled on each end and sealed with tape charge 400 grams of West Texas Sandy Loam Soil and 100 grams of distilled water, mix thoroughly to a consistency of thick “mud” (% moisture should be between 30-40%). • 2. Calculate the surface area to be treated. • a. 6″×9.5″=sq in/1 44 sq in/sq ft=0.395 sq ft • b. 0.395 sq ft/43,560 sq ft/acre=0.0000091 acres • 3. Calculate amount of urea and treated urea to charge to the containers of soil • a. Application Rate: 400 pounds urea per acre • b. 400 lbs/acre/43560 sq ft/acre=0.009 lbs/sq ft×0.395 sq ft/container=0.0036 lbs/container×454 g/lb=1.65 grams urea per container. • c. Add 1.65 grams of urea and various treated ureas to each container • 4. Ammonia Volatilization Screening Test • a. Evenly distribute over the soil in each container 1.65 grams of example to be tested, • b. Seal container, • c. Take readings of ammonia volatilization of each container over a selected period of time as directed in Table 9, • i. Drager tube measurement • (1) Use Drager pump with 0-600 ppm (or range TBD) ammonia drager tube. • (2) At specified times, quickly remove the tape on one end of container and insert the drager tube/pump. • (3) Fully squeeze pump 20 times allowing enough time for pump to fully inflate between each squeeze and then remove the tube from the container and read. • (4) Open container lid and vent the remaining ammonia gas out of the container and reseal. • (5) Repeat procedure at next designated time.

Structure (SMILES): N#CN=C(N)N [DCD untreated, Dicyandiamide]
- Initial Appearance ([1]; 3%): clear
- Time to Dissolution ([1]; 3 grams in 97 grams (3%)): 1740 s

Structure (SMILES): CCCCNP(N)(N)=S [NBPT, N-(n-butyl)thiophosphoric triamide]
- % NBPT present by LC/UV Average ([2]; 50° C./3600 sec): 99.38%
- % Weight Loss Average ([2]; 50° C./3600 sec): 0.0%
- % NBPT present by LC/UV % w/w ([2]; 50° C./3600 sec): 99.17% and 99.58%
- % NBPT present by LC/UV Average ([2]; 70° C./900 sec): 99.38%
- % Weight Loss Average ([2]; 70° C./900 sec): 0.26%
- % NBPT present by LC/UV % w/w ([2]; 70° C./900 sec): 99.53% and 99.23%
- % NBPT present by LC/UV Average ([2]; 100° C./300 sec): 22.92%
- % Weight Loss Average ([2]; 100° C./300 sec): 10.36%
- % NBPT present by LC/UV % w/w ([2]; 100° C./300 sec): 23.59% and 22.25%
- % NBPT present by LC/UV Average ([2]; 120° C./180 sec): 4.67%
- % Weight Loss Average ([2]; 120° C./180 sec): 13.55%
- % NBPT present by LC/UV % w/w ([2]; 120° C./180 sec): 4.79% and 4.54%
- % NBPT present by LC/UV Average ([2]; 140° C./90 sec): 3.84%
- % Weight Loss Average ([2]; 140° C./90 sec): 13.42%
- % NBPT present by LC/UV % w/w ([2]; 140° C./90 sec): 3.68% and 3.99%
- degradation (HPLC) ([2]; 15 minutes at 70° C.): no degradation
- % NBPT present by LC/UV Average ([2]; NBPT std, not heated): 99.25%
- % NBPT present by LC/UV % w/w ([2]; NBPT std, not heated): 99.35% and 99.16%
- thermal stability (HPLC) ([2]; temperatures >100° C.): poor thermal stability

Structure (SMILES): NC(N)=O [Urea]
- Nitrate-N Concentration ([3]; Day 1, Calhoun silt loam): 113.4 mg NO3—N/kg soil
- Nitrate-N Concentration ([3]; Day 3): 98.6 mg NO3—N/kg soil
- Nitrate-N Concentration ([3]; Day 7): 151.6 mg NO3—N/kg soil
- Nitrate-N Concentration ([3]; Day 14): 202.8 mg NO3—N/kg soil
- Nitrate-N Concentration ([3]; Day 21): 221.2 mg NO3—N/kg soil
- Nitrate-N Concentration ([3]; Day 28): 262.3 mg NO3—N/kg soil
- Nitrate-N Concentration ([3]; Day 35): 255.3 mg NO3—N/kg soil
- Crush Strength stored 24 hrs. @ 25 C. [4]: 5.4
- Crush Strength stored 24 hrs. @ 50 C. [4]: 6.75
- Ammonia Reading (urease enzyme; 72 hours, 1.65 grams treated urea (3 quarts/ton) on West Texas Sandy Loam Soil): 220 ppm
- Ammonia Reading (urease enzyme; 144 hours): 475 ppm
- Ammonia Reading (urease enzyme; 264 hours): 460 ppm
